Values quoted from earlier work in patent publication US11103891B2, “Pharmaceutical composition” (priority 2011, dated 2021).

Conditions: immediate release preparations of levodopa

## N[C@@H](Cc1ccc(O)c(O)c1)C(=O)O [levodopa]
  levodopa dose that reaches the brain: about 5%
